In one test the target is Human LDHA (Homo sapiens (Human), UniProt P00338). The test is described as follows: human LDHA primary biochemical assay (resazurin/diaphorase coupled, fluorescence). From the text: Test compounds were placed in a Greiner Bio-One (Monroe, N.C.) 1536-well black solid bottom assay plate. 200 millimolar (mM) Tris HCl, pH 7.4, 100 micromolar […] EDTA and 0.01% TWEEN-20™, final concentration, was used as the assay buffer. The LDHA reagent was 2 nanomolar (nM) Human LDHA (Meridian Life Science, Inc., Memphis, Tenn.), final concentration, in assay buffer.
In general terms: The colour change of resazurin is a common sign of viable cells or microbes.

The next test relates to MiaPaCa2 cells. As to the kind of experiment: cell-based HT lactate assay, colorimetric/fluorometric detection (inhibition of lactate production). The following applies: class symbols, 0 to 3 pluses. How it is done:
Cell-based HT Lactate assay is a miniaturized Biovision Lactate Colorimetric/Fluorometric Assay Kit (Cat #K607-100). The assay is roughly a 3.5 hour assay run in a 1536 plate format. Cell number optimization should be run for each cell line to achieve an optimal number in which lactate production equals roughly 90% of the standard curve range. Cell number per well optimization has been performed with the following cell lines: MiaPaCa2—500 cells/well, SNU398—500 cells/well, and P493—500 cells/well.
The lactate activity in Table 8 is represented by 0 to 3 pluses as follows: +++<1 μM; ++1-10 μM; +10-57 μM; and −>57 μM.

The mark [1] stands for this setting: LDHA inhibitory activity, assay of Example 1, activity level classes.
Where [2] appears, read: LDHA inhibitory activity, activity level based on IC50 (Table 7).
[3] abbreviates: read-out: Inhibitory activity IC50.

By IC50 is commonly meant the concentration that inhibits the measured activity by half.

Like-named read-outs stand apart in the source and are kept apart here.

Take `N[S+](=O)([O-])c1ccc(Cc2c(-c3ccc(F)c(-c4ccc(C5CC5)cc4)c3)nn(-c3nc(C(=O)O)cs3)c2CC2CC2)cc1` [Compound 294]: the IC50 is less than 100 nM against Human LDHA (setting [1]) and less than 1000 nM in the test on MiaPaCa2 cells.
With `N[S+](=O)([O-])c1ccc(Cc2c(-c3ccc(F)c(-c4cccc(CN5CCOCC5)c4)c3)nn(-c3nc(C(=O)O)cs3)c2CC2CC2)cc1F` [Compound 387], the results for the IC50 against Human LDHA (setting [2]) and in the test with MiaPaCa2 cells were less than 100 nM and 1000 to 10000 nM, respectively.
`N[S+](=O)([O-])c1ccc(Cc2c(-c3ccc(F)c(C#CC4CCCC4)c3)nn(-c3nc(C(=O)O)cs3)c2C2CC2)cc1F` [Compound 431]: the IC50 is less than 100 nM on Human LDHA (setting [2]) and less than 1000 nM in the test with MiaPaCa2 cells.
For `NS(=O)(=O)c1ccc(Cc2c(-c3ccc(F)c(C#CC4(O)COC4)c3)nn(-c3nc(C(=O)O)cs3)c2CC2CC2)cc1F` [Compound 415], the values for the IC50 on Human LDHA (setting [2]) and in the test on MiaPaCa2 cells were less than 100 nM and 1000 to 10000 nM, respectively.
The corresponding values for `Cc1ccc(-c2cc(-c3nn(-c4nc(C(=O)O)cs4)c(CC4CC4)c3Cc3ccc(S(N)(=O)=O)c(Cl)c3)ccc2F)s1` [Compound 407] are less than 100 nM and less than 1000 nM.
For the compound `N[S+](=O)([O-])c1ccc(Cc2c(-c3ccc(F)c(C4=CCNCC4)c3)nn(-c3nc(C(=O)O)cs3)c2CC2CC2)cc1F` [Compound 369], the IC50 against Human LDHA (setting [2]) is less than 100 nM; in the test on MiaPaCa2 cells, 10000 to 57000 nM.
Take `N[S+](=O)([O-])c1ccc(Cc2c(-c3ccc(F)c(CCCCC(F)(F)F)c3)nn(-c3nc(C(=O)O)cs3)c2CC2CC2)cc1F` [Compound 388]: the results for the 50% inhibitory concentration (IC50) at Human LDHA (setting [2]) and in the test with MiaPaCa2 cells were less than 100 nM and 1000 to 10000 nM, respectively.
Take `NS(=O)(=O)c1ccc(Cc2c(-c3ccc(F)c(OCc4ccc(C(F)(F)F)o4)c3)nn(-c3nc(C(=O)O)cs3)c2CC2CC2)cc1F` [Compound 473, 2-(5-(cyclopropylmethyl)-3-(4-fluoro-3-((5-(trifluoromethyl)furan-2-yl)methoxy)phenyl)-4-(3-fluoro-4-sulfamoylbenzyl)-1H-pyrazol-1-yl)thiazole-4-carboxylic Acid]: the IC50 is less than 100 nM against Human LDHA (setting [2]) and less than 1000 nM in the test on MiaPaCa2 cells (Homo sapiens, MIA PaCa-2).
Consider `CCOC(=O)c1csc(-n2nc(-c3cccc(C#CC4CCCC4)c3)c(Cc3ccc(S(N)(=O)=O)c(F)c3)c2CC2CC2)n1` [Compound 428], for which the IC50 against Human LDHA (setting [2]) and in the test on MiaPaCa2 cells was more than 57000 nM each time.
Consider `COc1cccc(-c2cc(-c3nn(-c4nc(C(=O)O)cs4)c(C4CC4)c3Cc3ccc(S(N)(=O)=O)c(F)c3)ccc2F)c1` [Compound 252], for which the IC50 was less than 100 nM at Human LDHA (setting [1]) and 1000 to 10000 nM with MiaPaCa2 cells.
In the same order, the values of `NS(=O)(=O)c1ccc(Cc2c(-c3ccc(F)c(C#CC4CCNCC4)c3)nn(-c3nc(C(=O)O)cs3)c2CC2CC2)cc1F` [Compound 261] are less than 100 nM and 1000 to 10000 nM.
Regarding `NS(=O)(=O)c1ccc(Cc2c(-c3cc(F)cc(-c4cccc(F)c4)c3)nn(-c3nc(C(=O)O)cs3)c2CC2CC2)cc1` [Compound 523, 2-(5-(cyclopropylmethyl)-3-(3′,5-difluoro-[1,1′-biphenyl]-3-yl)-4-(4-sulfamoylbenzyl)-1H-pyrazol-1-yl)thiazole-4-carboxylic acid], the IC50 against Human LDHA (setting [2]) fell in the range of 100 to 1000 nM; in the test with MiaPaCa2 cells (Homo sapiens, MIA PaCa-2), 1000 to 10000 nM.
On to `N[S+](=O)([O-])c1ccc(Cc2c(-c3ccc(F)c(C4=COCCC4)c3)nn(-c3nc(C(=O)O)cs3)c2CC2CC2)cc1F` [Compound 379], for which the figures for the IC50 on Human LDHA (setting [2]) and in the test with MiaPaCa2 cells were less than 100 nM and less than 1000 nM, respectively.
On to `CNS(=N)(=O)c1ccc(Cc2c(-c3ccc(F)c(-c4cccc(F)c4)c3)nn(-c3nc(C(=O)O)cs3)c2CC2CC2)cc1F` (centres unmarked) [Compound 389], for which the IC50 fell in the range of 100 to 1000 nM on Human LDHA (setting [2]) and 1000 to 10000 nM in the test with MiaPaCa2 cells.
In the same order, the values of `NS(=O)(=O)c1ccc(Cc2c(-c3cccc(C4CCCC4)c3)nn(-c3nc(C(=O)O)cs3)c2CC2CC2)cc1` [Compound 372] are less than 100 nM and 1000 to 10000 nM.
With `Cc1csc(-c2cc(-c3nn(-c4nc(C(=O)O)cs4)c(CC4CC4)c3Cc3ccc(S(N)(=O)=O)cc3F)ccc2F)c1` [Compound 221, 2-(5-(cyclopropylmethyl)-3-(4-fluoro-3-(4-methylthiophen-2-yl)phenyl)-4-(2-fluoro-4-sulfamoylbenzyl)-1H-pyrazol-1-yl)thiazole-4-carboxylic acid], the 50% inhibitory concentration (IC50) was less than 100 nM at Human LDHA (setting [3]) and less than 1000 nM with MiaPaCa2 cells (Homo sapiens, MIA PaCa-2).
Turning to `NS(=O)(=O)c1ccc(Cc2c(-c3ccc(F)c(C#CCC4CC4)c3)nn(-c3nc(C(=O)O)cs3)c2CC2CC2)cc1F` [Compound 437], the IC50 against Human LDHA (setting [2]) is less than 100 nM; in the test on MiaPaCa2 cells, less than 1000 nM.
For the compound `NS(=O)(=O)c1ccc(Cc2c(-c3cccc(C(O)(C4CC4)C(F)(F)F)c3)nn(-c3nc(C(=O)O)cs3)c2CC2CC2)cc1F` (centres unmarked) [Compound 398], the IC50 is less than 100 nM against Human LDHA (setting [2]) and 10000 to 57000 nM with MiaPaCa2 cells.
In the same order, the values of `N[S+](=O)([O-])c1ccc(Cc2c(-c3ccc(F)c(C4=CCN(C(=O)C5CC5)CC4)c3)nn(-c3nc(C(=O)O)cs3)c2CC2CC2)cc1F` [Compound 380] are less than 100 nM and 1000 to 10000 nM.
The corresponding values for `NS(=O)(=O)c1ccc(Cc2c(-c3ccc(F)c(CC4CC4)c3)nn(-c3nc(C(=O)O)cs3)c2CC2CC2)cc1F` [Compound 378] are less than 100 nM and less than 1000 nM.
As for `NS(=O)(=O)c1ccc(Cc2c(-c3ccc(F)c(OCc4cccc(F)c4)c3)nn(-c3nc(C(=O)O)cs3)c2CC2CC2)cc1F` [Compound 528, 2-(5-(cyclopropylmethyl)-3-(4-fluoro-3-((3-fluorobenzyl)oxy)phenyl)-4-(3-fluoro-4-sulfamoylbenzyl)-1H-pyrazol-1-yl)thiazole-4-carboxylic Acid], the IC50 is less than 100 nM against Human LDHA (setting [2]) and less than 1000 nM with MiaPaCa2 cells (Homo sapiens, MIA PaCa-2).
With `N[S+](=O)([O-])c1ccc(Cc2c(-c3cccc(S(F)(F)(F)(F)F)c3)nn(-c3nc(C(=O)O)cs3)c2CC2CC2)cc1F` [Compound 376], the values for the IC50 against Human LDHA (setting [2]) and in the test on MiaPaCa2 cells were less than 100 nM and less than 1000 nM, respectively.
In the same order, the values of `CC(c1ccccc1)c1cc(-c2nn(-c3nc(C(=O)O)cs3)c(CC3CC3)c2Cc2ccc(S(N)(=O)=O)c(F)c2)ccc1F` (centres unmarked) [Compound 384] are less than 100 nM and less than 1000 nM.
As for `CC(C)c1cc(-c2nn(-c3nc(C(=O)O)cs3)c(CC3CC3)c2Cc2ccc(S(N)(=O)=O)c(F)c2)ccc1F` [Compound 383], the IC50 is less than 100 nM on Human LDHA (setting [2]) and less than 1000 nM in the test with MiaPaCa2 cells.
With `N[S+](=O)([O-])c1ccc(Cc2c(-c3ccc(F)c(-c4cccc(F)c4)c3)nn(-c3nc(C(=O)O)cs3)c2CC2CC2)cc1F` [Compound 326], the values for the IC50 against Human LDHA (setting [1]) and in the test on MiaPaCa2 cells were less than 100 nM and less than 1000 nM, respectively.
On to `CN1CCC(c2cc(-c3nn(-c4nc(C(=O)O)cs4)c(CC4CC4)c3Cc3ccc([S+](N)(=O)[O-])c(F)c3)ccc2F)CC1` [Compound 390], for which the IC50 against Human LDHA (setting [2]) is less than 100 nM; in the test with MiaPaCa2 cells, more than 57000 nM.
Consider `NS(=O)(=O)c1ccc(Cc2c(-c3ccc(F)c(C#CC4(O)CCCC4)c3)nn(-c3nc(C(=O)O)cs3)c2CC2CC2)cc1F` [Compound 412], for which the values for the IC50 against Human LDHA (setting [2]) and in the test with MiaPaCa2 cells were less than 100 nM and 1000 to 10000 nM, respectively.
In the same order, the values of `NS(=O)(=O)c1ccc(Cc2c(-c3cccc(N4CCCC(F)(F)C4)c3)nn(-c3nc(C(=O)O)cs3)c2CC2CC2)cc1F` [Compound 397] are less than 100 nM and 1000 to 10000 nM.
For the compound `COc1cccc(-c2cc(-c3c(Cc4ccc(S(N)(=O)=O)cc4F)c(CC4CC4)nn3-c3nc(C(=O)O)cs3)ccc2F)c1` [Compound 327], the IC50 against Human LDHA (setting [1]) was 1000 to 57000 nM; with MiaPaCa2 cells, 10000 to 57000 nM.
As for `CCOC(=O)c1csc(-n2nc(-c3ccc(F)c(-c4ccc(C)s4)c3)c(Cc3ccc(S(N)(=O)=O)c(F)c3)c2CC2CC2)n1` [Compound 229, ethyl 2-(5-(cyclopropylmethyl)-3-(4-fluoro-3-(5-methylthiophen-2-yl)phenyl)-4-(3-fluoro-4-sulfamoylbenzyl)-1H-pyrazol-1-yl)thiazole-4-carboxylate], the IC50 was more than 57000 nM at Human LDHA (setting [3]) and more than 57000 nM with MiaPaCa2 cells (Homo sapiens, MIA PaCa-2).
Regarding `NS(=O)(=O)c1ccc(Cc2c(-c3ccc(F)c(OCc4ccccc4)c3)nn(-c3nc(C(=O)O)cs3)c2CC2CC2)cc1` [Compound 480, 2-(3-(3-(benzyloxy)-4-fluorophenyl)-5-(cyclopropylmethyl)-4-(4-sulfamoylbenzyl)-1H-pyrazol-1-yl)thiazole-4-carboxylic Acid], the IC50 against Human LDHA (setting [2]) is less than 100 nM; with MiaPaCa2 cells (Homo sapiens, MIA PaCa-2), less than 1000 nM.
With `NS(=O)(=O)c1ccc(Cc2c(-c3cccc(-c4ccccc4)c3)nn(-c3nc(C(=O)O)cs3)c2CC(F)(F)F)cc1` [Compound 304], the IC50 at Human LDHA (setting [1]) lay in the range of 100 to 1000 nM; in the test on MiaPaCa2 cells it was 10000 to 57000 nM.
For the compound `Cc1ncc(-c2cc(-c3nn(-c4nc(C(=O)O)cs4)c(CC4CC4)c3Cc3ccc(S(N)(=O)=O)c(F)c3)ccc2F)s1` [Compound 232, 2-(5-(cyclopropylmethyl)-3-(4-fluoro-3-(2-methylthiazol-5-yl)phenyl)-4-(3-fluoro-4-sulfamoylbenzyl)-1H-pyrazol-1-yl)thiazole-4-carboxylic acid], the IC50 at Human LDHA (setting [3]) was less than 100 nM; in the test on MiaPaCa2 cells (Homo sapiens, MIA PaCa-2), less than 1000 nM.
As for `NS(=O)(=O)c1ccc(Cc2c(-c3ccc(F)c(F)c3)nn(-c3nc(C(=O)O)cs3)c2I)cc1` [Compound 43, 2-(3-(3,4-difluorophenyl)-5-iodo-4-(4-sulfamoylbenzyl)-1H-pyrazol-1-yl)thiazole-4-carboxylic acid], the IC50 against Human LDHA (setting [1]) is less than 100 nM; in the test with MiaPaCa2 cells (Homo sapiens, MIA PaCa-2) it was 10000 to 57000 nM.
